Results taken from ChEMBL document CHEMBL3351479, “Novel acylureidoindolin-2-one derivatives as dual Aurora B/FLT3 inhibitors for the treatment of acute myeloid leukemia” (Eur J Med Chem, 2014).

Tests used:
[1] = Oral bioavailability in BALB/c mouse at 10 mg/kg; assay type: ADME, organism-based; conditions: in vivo
[2] = AUC (0 to 24 hrs) in BALB/c mouse at 10 mg/kg, po; assay type: ADME, organism-based; set-up: time < 24 hr, dose 10 mg/kg, route oral; conditions: plasma
MOLM-13 [3] = experiment: Antitumor activity against human MOLM13 cells xenografted in BALB/cAnN.Cg-Foxnlnu/CrlNarl mouse assessed as reduction in tumor mass at 10 mg/kg, ip once daily for 16 days; assay type: functional; conditions: MOLM-13, ip, 384 h, route intraperitoneal
[4] = molecular target: Mast/stem cell growth factor receptor Kit (Homo sapiens, UniProt P10721); experiment: Inhibition of c-Kit (unknown origin)
Cytochrome P450 2C19 = Cytochrome P450 2C19 (Homo sapiens, UniProt P33261); experiment: Inhibition of CYP2C19 (unknown origin) using 3-cyano-7-ethoxycoumarin substrate; assay type: ADME
Mus musculus = experiment: Toxicity in BALB/c AnN.Cg-Foxnlnu/CrlNarl mouse xenografted with human MOLM13 cells assessed as body weight loss at 10 mg/kg, ip administered qd for 16 days; assay type: organism-based, MOLM-13; set-up: dose 10 mg/kg, route intraperitoneal; conditions: in vivo, 384 h
[5] = Therapeutic index, ratio of LD50 for BALB/c AnN.Cg-Foxnlnu/CrlNarl mouse to ED50 for antitumor activity against human MOLM13 cells xenografted in BALB/c AnN.Cg-Foxnlnu/CrlNarl mouse; assay type: cell-based, MOLM-13; conditions: in vivo, read-out: Ratio LD50/ED50
[6] = AUC (0 to 24 hrs) in BALB/c mouse at 2 mg/kg, iv; assay type: ADME, organism-based; set-up: time < 24 hr, dose 2 mg/kg, route intravenous; conditions: plasma
Cytochrome P450 2D6 = Cytochrome P450 2D6 (Homo sapiens, UniProt P10635); experiment: Inhibition of CYP2D6 (unknown origin) using 3-cyano-7-ethoxycoumarin substrate; assay type: ADME
[7] = molecular target: Cytochrome P450 1A2 (Homo sapiens) (UniProt P05177); experiment: Inhibition of CYP1A2 (unknown origin) using 3-cyano-7-ethoxycoumarin substrate
[8] = Tmax in BALB/c mouse at 10 mg/kg, po; assay type: ADME, organism-based; set-up: dose 10 mg/kg, route oral; conditions: in vivo
[9] = Volume of distribution at steady state in BALB/c mouse at 2 mg/kg, iv; assay type: ADME, organism-based; set-up: dose 2 mg/kg, route intravenous; conditions: in vivo, read-out: Vdss
[10] = Tmax in BALB/c mouse at 2 mg/kg, iv; assay type: ADME, organism-based; set-up: dose 2 mg/kg, route intravenous; conditions: in vivo
[11] = Cmax in BALB/c mouse at 10 mg/kg, po; assay type: ADME, organism-based; set-up: dose 10 mg/kg, route oral; conditions: in vivo
[12] = molecular target: Tyrosine-protein kinase Lck (Homo sapiens, UniProt P06239); experiment: Inhibition of Lck (unknown origin)
[13] = Cmax in BALB/c mouse at 2 mg/kg, iv; assay type: ADME, organism-based; set-up: dose 2 mg/kg, route intravenous; conditions: in vivo
MOLM-13 [14] = experiment: Cytotoxicity against human MOLM13 cells assessed as cell viability after 48 hrs by MTT assay; assay type: functional, cell-based; conditions: MOLM-13, 48 h
[15] = Clearance in BALB/c mouse at 2 mg/kg, iv; assay type: ADME, organism-based; set-up: dose 2 mg/kg, route intravenous; conditions: in vivo
[16] = molecular target: Voltage-gated inwardly rectifying potassium channel KCNH2 (Homo sapiens, UniProt Q12809); experiment: Inhibition of human ERG channel after 3 hrs by fluorescence assay
[17] = Half life in BALB/c mouse at 10 mg/kg, po; assay type: ADME, organism-based; set-up: dose 10 mg/kg, route oral; conditions: in vivo
MV4-11 = experiment: Cytotoxicity against human MV4-11 cells assessed as cell viability after 48 hrs by MTT assay; assay type: functional, cell-based; conditions: Homo sapiens, MV4-11, 48 h
[18] = Cytotoxicity against human HL60 cells assessed as cell viability after 48 hrs by MTT assay; assay type: functional, cell-based; conditions: HL-60, 48 h
THP-1 = experiment: Cytotoxicity against human THP1 cells assessed as cell viability after 48 hrs by MTT assay; assay type: functional, cell-based; conditions: Homo sapiens, THP-1, 48 h
[19] = Half life in BALB/c mouse at 2 mg/kg, iv; assay type: ADME, organism-based; set-up: dose 2 mg/kg, route intravenous; conditions: in vivo
Cytochrome P450 2C9 = Cytochrome P450 2C9 (Homo sapiens, UniProt P11712); experiment: Inhibition of CYP2C9 (unknown origin) using Vivid OOMR substrate; assay type: ADME
Vero = experiment: Cytotoxicity against african green monkey Vero cells at 10 uM after 48 hrs by MTT assay; assay type: cell-based; conditions: chlorocebus sabaeus
Cytochrome P450 3A4 = Cytochrome P450 3A4 (Homo sapiens, UniProt P08684); experiment: Inhibition of CYP3A4 (unknown origin) using Vivid OOMR substrate; assay type: ADME
[20] = Ratio of solubility in PBS to solubility in DMSO; assay type: physicochemical
[21] = Permeability coefficient of the compound at pH 7.4 by PAMPA-GIT assay; assay type: ADME; conditions: read-out: Peff
MOLM-13 [22] = experiment: Antitumor activity against human MOLM13 cells xenografted in BALB/c AnN.Cg-Foxnlnu/CrlNarl mouse assessed as reduction in tumor growth at 10 mg/kg, ip once daily for 16 days; assay type: functional; conditions: MOLM-13, ip, 384 h, route intraperitoneal
[23] = Toxicity in BALB/c AnN.Cg-Foxnlnu/CrlNarl mouse xenografted with human MOLM13 cells at 10 mg/kg, ip administered qd for 16 days; assay type: organism-based, MOLM-13; set-up: dose 10 mg/kg, route intraperitoneal; conditions: in vivo

Sequence of Voltage-gated inwardly rectifying potassium channel KCNH2 (Q12809 whole entry): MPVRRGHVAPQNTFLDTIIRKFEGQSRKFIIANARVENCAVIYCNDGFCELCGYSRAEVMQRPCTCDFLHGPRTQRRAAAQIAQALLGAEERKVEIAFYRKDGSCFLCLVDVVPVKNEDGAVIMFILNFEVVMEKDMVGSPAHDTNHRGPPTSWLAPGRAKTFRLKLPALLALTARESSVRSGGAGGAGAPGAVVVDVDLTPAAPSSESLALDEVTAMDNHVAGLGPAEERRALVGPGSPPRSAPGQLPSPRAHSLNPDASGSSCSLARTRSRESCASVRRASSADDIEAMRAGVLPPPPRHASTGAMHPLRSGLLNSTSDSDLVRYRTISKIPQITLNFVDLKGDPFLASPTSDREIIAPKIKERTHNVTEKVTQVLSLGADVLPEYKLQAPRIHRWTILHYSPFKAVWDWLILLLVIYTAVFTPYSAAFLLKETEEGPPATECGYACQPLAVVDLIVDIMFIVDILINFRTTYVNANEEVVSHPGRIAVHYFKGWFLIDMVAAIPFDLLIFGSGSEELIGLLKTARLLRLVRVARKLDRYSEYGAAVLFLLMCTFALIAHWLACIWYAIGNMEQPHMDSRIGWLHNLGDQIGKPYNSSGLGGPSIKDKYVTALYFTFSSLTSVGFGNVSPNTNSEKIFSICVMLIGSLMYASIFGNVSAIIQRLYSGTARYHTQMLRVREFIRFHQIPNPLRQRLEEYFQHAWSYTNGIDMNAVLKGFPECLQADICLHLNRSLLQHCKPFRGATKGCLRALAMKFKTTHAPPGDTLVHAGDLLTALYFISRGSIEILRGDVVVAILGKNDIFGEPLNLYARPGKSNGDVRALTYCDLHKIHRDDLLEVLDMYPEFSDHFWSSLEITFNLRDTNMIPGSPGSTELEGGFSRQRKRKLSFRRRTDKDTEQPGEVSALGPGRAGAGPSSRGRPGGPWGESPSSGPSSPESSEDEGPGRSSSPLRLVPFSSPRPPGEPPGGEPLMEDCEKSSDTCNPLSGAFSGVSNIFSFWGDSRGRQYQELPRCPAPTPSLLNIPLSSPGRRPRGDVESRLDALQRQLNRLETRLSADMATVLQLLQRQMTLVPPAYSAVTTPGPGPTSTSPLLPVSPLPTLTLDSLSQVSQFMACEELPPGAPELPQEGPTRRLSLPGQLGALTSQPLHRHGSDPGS
Sequence of Mast/stem cell growth factor receptor Kit (P10721 whole entry): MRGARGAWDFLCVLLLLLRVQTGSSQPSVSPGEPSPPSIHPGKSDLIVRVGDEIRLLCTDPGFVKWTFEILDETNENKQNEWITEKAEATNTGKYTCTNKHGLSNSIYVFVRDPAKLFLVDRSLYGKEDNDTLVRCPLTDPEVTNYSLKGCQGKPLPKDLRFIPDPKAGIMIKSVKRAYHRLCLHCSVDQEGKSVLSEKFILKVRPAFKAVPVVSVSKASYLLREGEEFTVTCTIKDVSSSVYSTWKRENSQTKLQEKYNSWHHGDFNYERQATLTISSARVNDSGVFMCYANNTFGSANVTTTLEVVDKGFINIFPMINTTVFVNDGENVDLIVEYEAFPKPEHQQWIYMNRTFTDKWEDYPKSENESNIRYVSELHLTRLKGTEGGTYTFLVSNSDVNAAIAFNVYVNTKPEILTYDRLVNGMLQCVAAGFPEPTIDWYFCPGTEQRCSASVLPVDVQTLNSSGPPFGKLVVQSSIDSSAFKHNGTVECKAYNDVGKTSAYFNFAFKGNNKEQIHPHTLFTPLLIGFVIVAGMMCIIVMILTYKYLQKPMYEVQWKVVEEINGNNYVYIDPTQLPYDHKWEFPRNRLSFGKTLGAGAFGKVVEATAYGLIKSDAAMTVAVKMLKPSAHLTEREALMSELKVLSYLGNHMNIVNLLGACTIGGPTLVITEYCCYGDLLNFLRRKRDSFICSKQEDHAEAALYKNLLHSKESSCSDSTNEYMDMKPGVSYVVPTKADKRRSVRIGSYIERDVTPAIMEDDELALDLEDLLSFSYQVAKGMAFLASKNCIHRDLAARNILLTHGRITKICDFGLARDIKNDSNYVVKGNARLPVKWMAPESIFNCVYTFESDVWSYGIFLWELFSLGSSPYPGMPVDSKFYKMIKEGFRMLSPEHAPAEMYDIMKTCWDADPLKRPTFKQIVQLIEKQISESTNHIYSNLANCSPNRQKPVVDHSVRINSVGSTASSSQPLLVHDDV
Sequence of Cytochrome P450 2C19 (P33261 whole entry): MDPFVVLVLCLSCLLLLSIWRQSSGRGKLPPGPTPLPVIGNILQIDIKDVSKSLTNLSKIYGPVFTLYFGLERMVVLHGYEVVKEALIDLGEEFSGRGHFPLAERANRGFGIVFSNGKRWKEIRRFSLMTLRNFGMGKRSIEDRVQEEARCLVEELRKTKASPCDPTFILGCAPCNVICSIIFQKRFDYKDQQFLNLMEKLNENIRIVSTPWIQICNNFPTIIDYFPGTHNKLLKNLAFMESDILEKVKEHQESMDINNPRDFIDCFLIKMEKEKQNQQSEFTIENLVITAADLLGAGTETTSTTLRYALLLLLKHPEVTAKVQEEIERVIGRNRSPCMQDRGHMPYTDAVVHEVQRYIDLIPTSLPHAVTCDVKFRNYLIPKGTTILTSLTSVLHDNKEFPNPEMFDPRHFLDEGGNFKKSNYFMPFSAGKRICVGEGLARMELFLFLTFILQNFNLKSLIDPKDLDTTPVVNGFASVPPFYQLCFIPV
Sequence of Tyrosine-protein kinase Lck (P06239 whole entry): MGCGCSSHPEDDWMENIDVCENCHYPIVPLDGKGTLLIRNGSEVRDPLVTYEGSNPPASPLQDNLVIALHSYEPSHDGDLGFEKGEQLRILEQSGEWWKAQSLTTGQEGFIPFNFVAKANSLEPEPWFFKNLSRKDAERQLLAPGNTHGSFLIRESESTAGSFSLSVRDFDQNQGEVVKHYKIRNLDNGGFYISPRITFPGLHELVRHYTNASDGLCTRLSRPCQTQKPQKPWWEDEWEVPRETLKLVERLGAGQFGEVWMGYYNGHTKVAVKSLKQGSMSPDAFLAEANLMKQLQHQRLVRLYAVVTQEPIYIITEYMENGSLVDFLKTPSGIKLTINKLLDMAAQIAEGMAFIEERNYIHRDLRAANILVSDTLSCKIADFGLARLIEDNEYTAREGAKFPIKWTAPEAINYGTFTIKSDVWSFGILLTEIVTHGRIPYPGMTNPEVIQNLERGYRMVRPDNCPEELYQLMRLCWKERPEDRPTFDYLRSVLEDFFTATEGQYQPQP
Sequence of Cytochrome P450 2D6 (P10635 whole entry): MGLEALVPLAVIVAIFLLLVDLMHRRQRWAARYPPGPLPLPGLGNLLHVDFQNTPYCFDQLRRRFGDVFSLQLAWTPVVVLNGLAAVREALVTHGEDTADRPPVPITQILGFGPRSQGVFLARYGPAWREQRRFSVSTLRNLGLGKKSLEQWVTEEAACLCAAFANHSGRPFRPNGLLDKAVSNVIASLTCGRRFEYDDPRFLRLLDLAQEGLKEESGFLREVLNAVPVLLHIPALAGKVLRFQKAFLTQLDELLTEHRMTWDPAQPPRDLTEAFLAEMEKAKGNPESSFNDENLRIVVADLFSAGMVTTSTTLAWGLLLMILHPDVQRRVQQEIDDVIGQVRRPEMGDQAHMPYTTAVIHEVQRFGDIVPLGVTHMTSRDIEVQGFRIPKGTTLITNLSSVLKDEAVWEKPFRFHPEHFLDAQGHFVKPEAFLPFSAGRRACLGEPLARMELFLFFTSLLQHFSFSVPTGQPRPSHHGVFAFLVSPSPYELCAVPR
Sequence of Cytochrome P450 2C9 (P11712 whole entry): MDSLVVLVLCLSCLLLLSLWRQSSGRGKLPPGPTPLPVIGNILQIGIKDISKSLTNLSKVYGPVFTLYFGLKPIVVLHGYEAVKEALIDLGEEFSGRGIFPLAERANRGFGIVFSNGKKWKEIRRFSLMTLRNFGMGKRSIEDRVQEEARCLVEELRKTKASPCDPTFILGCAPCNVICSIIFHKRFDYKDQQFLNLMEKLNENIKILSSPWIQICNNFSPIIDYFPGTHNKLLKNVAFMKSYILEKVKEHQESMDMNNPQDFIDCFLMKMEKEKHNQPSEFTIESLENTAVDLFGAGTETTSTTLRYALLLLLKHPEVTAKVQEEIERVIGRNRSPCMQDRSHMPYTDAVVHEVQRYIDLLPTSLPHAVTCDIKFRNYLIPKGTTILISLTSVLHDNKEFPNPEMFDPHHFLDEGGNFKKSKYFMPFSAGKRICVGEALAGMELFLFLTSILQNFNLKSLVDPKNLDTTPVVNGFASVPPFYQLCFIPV
Sequence of Cytochrome P450 3A4 (P08684 whole entry): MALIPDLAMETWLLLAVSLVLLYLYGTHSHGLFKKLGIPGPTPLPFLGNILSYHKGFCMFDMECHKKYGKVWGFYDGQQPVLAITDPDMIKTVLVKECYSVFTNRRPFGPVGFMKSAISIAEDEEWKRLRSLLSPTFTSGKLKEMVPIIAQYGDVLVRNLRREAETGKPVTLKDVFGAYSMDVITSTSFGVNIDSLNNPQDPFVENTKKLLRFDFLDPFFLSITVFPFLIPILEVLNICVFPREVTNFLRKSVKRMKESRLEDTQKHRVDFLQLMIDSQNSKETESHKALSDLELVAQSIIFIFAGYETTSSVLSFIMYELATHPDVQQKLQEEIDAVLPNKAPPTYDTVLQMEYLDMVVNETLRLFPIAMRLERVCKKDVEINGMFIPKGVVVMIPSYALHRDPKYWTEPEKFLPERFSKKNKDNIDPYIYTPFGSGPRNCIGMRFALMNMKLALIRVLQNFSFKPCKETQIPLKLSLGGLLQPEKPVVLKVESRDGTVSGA

Which bioavailability [1] does the source give for `COc1ccc(C(=O)NC(=O)Nc2ccc3c(c2)NC(=O)/C3=C\c2[nH]c(C)c(C(=O)NCCN3CCCC3)c2C)c(F)c1` here?
The bioavailability was 2.6%.

What about the AUC(0-t) at 24 h [2] of the same compound?
The AUC(0-t) at 24 h was 252 ng·h/mL.

What about the inhibition in vivo at 10 mg/kg (MOLM-13 [3]) of the same compound?
Its inhibition in vivo at 10 mg/kg is 95%.

And the IC50 [4]?
Its IC50 is 14 nM.

And the IC50 (Cytochrome P450 2C19)?
Its IC50 is > 10000 nM.

What about the Activity (Mus musculus) of the same compound?
Its Activity is “Non-toxic”.

And the selectivity ratio [5]?
The selectivity ratio was > 10.

What about the AUC(0-t) at 24 h [6] of the same compound?
The AUC(0-t) at 24 h was 1960 ng·h/mL.

And the IC50 (Cytochrome P450 2D6)?
Its IC50 is > 10000 nM.

What about the IC50 [7] of the same compound?
The IC50 was > 10000 nM.

And the Tmax [8]?
Its Tmax is 1.7 h.

What about the Vd [9] of the same compound?
Its Vd is 22.2 L/kg.

And the Tmax [10]?
Its Tmax is 6 min.

And the Cmax [11]?
Its Cmax is 20.9 ng/mL.

What about the IC50 [12] of the same compound?
The IC50 was 2.3 nM.

What about the Cmax [13] of the same compound?
Its Cmax is 654 ng/mL.

And the IC50 (MOLM-13 [14])?
The IC50 was 0.7 nM.

What about the clearance [15] of the same compound?
The clearance was 8.33 mL/min/kg.

And the IC50 [16]?
Its IC50 is 9670 nM.

What about the half-life [17] of the same compound?
The half-life was 8.6 h.

What about the IC50 (MV4-11) of the same compound?
Its IC50 is 2.4 nM.

What about the IC50 [18] of the same compound?
The IC50 was 2.8 nM.

And the IC50 (THP-1)?
Its IC50 is 48.9 nM.

And the half-life [19]?
Its half-life is 27.6 h.

What about the IC50 (Cytochrome P450 2C9) of the same compound?
The IC50 was > 10000 nM.

What about the Activity (Vero) of the same compound?
Its Activity is “Non-toxic”.

And the IC50 (Cytochrome P450 3A4)?
Its IC50 is > 10000 nM.

And the Ratio [20]?
Its Ratio is 0.36.

What about the Papp [21] of the same compound?
The Papp was 1.78 ×10⁻⁶ cm/s.

And the inhibition in vivo at 10 mg/kg (MOLM-13 [22])?
Its inhibition in vivo at 10 mg/kg is > 90%.

And the LD50 at 384 h [23]?
Its LD50 at 384 h is > 20 mg/kg.
